Calls of active or inactive are those of the source. The rule behind the calls is not given here.
System: CCRIS mutagenicity, Ames/micronucleus/aberration tests
Test: CCRIS mutagenicity studies

For `Cc1cc(N)c(C)cc1N`, the mutagenic call (Test System: AMES SALMONELLA TYPHIMURIUM, Strain/Indicator: TA98, Metabolic Activation: NONE, Method: STANDARD PLATE) was “inactive; negative”, the mutagenic call (Test System: AMES SALMONELLA TYPHIMURIUM, Strain/Indicator: TA98, Metabolic Activation: RAT, LIVER, S-9, AROCLOR 1254, Method: STANDARD PLATE) was “active; positive” and the mutagenic call (Test System: AMES SALMONELLA TYPHIMURIUM, Strain/Indicator: TA100, Metabolic Activation: NONE, Method: STANDARD PLATE) was “inactive; negative”. For the same compound, the mutagenic call (Test System: AMES SALMONELLA TYPHIMURIUM, Strain/Indicator: TA100, Metabolic Activation: RAT, LIVER, S-9, AROCLOR 1254, Method: STANDARD PLATE) was “inactive; negative”, the mutagenic call (Test System: AMES SALMONELLA TYPHIMURIUM, Strain/Indicator: TA1535, Metabolic Activation: NONE, Method: STANDARD PLATE) was “inactive; negative” and the mutagenic call (Test System: AMES SALMONELLA TYPHIMURIUM, Strain/Indicator: TA1535, Metabolic Activation: RAT, LIVER, S-9, AROCLOR 1254, Method: STANDARD PLATE) was “inactive; negative”. For the same compound, the mutagenic call (Test System: AMES SALMONELLA TYPHIMURIUM, Strain/Indicator: TA1537, Metabolic Activation: NONE, Method: STANDARD PLATE) was “inactive; negative”, the mutagenic call (Test System: AMES SALMONELLA TYPHIMURIUM, Strain/Indicator: TA1537, Metabolic Activation: RAT, LIVER, S-9, AROCLOR 1254, Method: STANDARD PLATE) was “inactive; negative” and the mutagenic call (Test System: AMES SALMONELLA TYPHIMURIUM, Strain/Indicator: TA1538, Metabolic Activation: NONE, Method: STANDARD PLATE) was “inactive; negative”. The mutagenic call (Test System: AMES SALMONELLA TYPHIMURIUM, Strain/Indicator: TA1538, Metabolic Activation: RAT, LIVER, S-9, AROCLOR 1254, Method: STANDARD PLATE) was “inactive; negative”.

`NNc1nc(-c2ccc(N)cc2)cs1` was tested, and the mutagenic call (Test System: AMES SALMONELLA TYPHIMURIUM, Strain/Indicator: TA98, Metabolic Activation: RAT, LIVER, S-9, KC500 OR PHENOBARBITAL, Method: LIQUID SUSPENSION) was “active; positive” and the mutagenic call (Test System: AMES SALMONELLA TYPHIMURIUM, Strain/Indicator: TA100, Metabolic Activation: RAT, LIVER, S-9, KC500 OR PHENOBARBITAL, Method: LIQUID SUSPENSION) was “active; positive”.

With `Cc1ccc(N=C=O)cc1N=C=O` the mutagenic call (End Point: IN VITRO CHROMOSOMAL ABERRATIONS, Test System: CHL CELLS, Metabolic Activation: RAT, LIVER, S-9, SODIUM PHENOBARBITAL AND 5,6-BENZOFLAVONE) was “inactive; negative; authors report equivocal results for ploidy changes at the highest dos”, the mutagenic call (End Point: IN VITRO CHROMOSOMAL ABERRATIONS, Test System: CHO CELLS, Metabolic Activation: RAT, LIVER, S-9, AROCLOR 1254) was “inactive; negative; precipitation occurred at 500 and 750 ug/ml” and the mutagenic call (Test System: AMES SALMONELLA TYPHIMURIUM, Strain/Indicator: TA97, Metabolic Activation: HAMSTER, LIVER, S-9, AROCLOR 1254 (10%), Method: PREINCUBATION) was “inactive; negative”. For the same compound, the mutagenic call (Test System: AMES SALMONELLA TYPHIMURIUM, Strain/Indicator: TA97, Metabolic Activation: NONE, Method: PREINCUBATION) was “inactive; negative”, the mutagenic call (Test System: AMES SALMONELLA TYPHIMURIUM, Strain/Indicator: TA97, Metabolic Activation: RAT, LIVER, S-9, AROCLOR 1254 (10%), Method: PREINCUBATION) was “inactive; negative” and the mutagenic call (Test System: AMES SALMONELLA TYPHIMURIUM, Strain/Indicator: TA98, Metabolic Activation: HAMSTER, LIVER, S-9, AROCLOR 1254 (10%), Method: PREINCUBATION) was “active; positive”. The mutagenic call (Test System: AMES SALMONELLA TYPHIMURIUM, Strain/Indicator: TA98, Metabolic Activation: NONE, Method: PREINCUBATION) was “inactive; negative”, the mutagenic call (Test System: AMES SALMONELLA TYPHIMURIUM, Strain/Indicator: TA98, Metabolic Activation: RAT LIVER S-9, AROCLOR 1254 (10 OR 30%), Method: STANDARD PLATE) was “active; positive” and the mutagenic call (Test System: AMES SALMONELLA TYPHIMURIUM, Strain/Indicator: TA98, Metabolic Activation: RAT LIVER S-9, PHENOBARBITAL AND BETA-NAPHTHOFLAVONE, Method: PREINCUBATION) was “inactive; negative”. The mutagenic call (Test System: AMES SALMONELLA TYPHIMURIUM, Strain/Indicator: TA98, Metabolic Activation: RAT, LIVER, S-9, AROCLOR 1254 (10%), Method: PREINCUBATION) was “active; positive”, the mutagenic call (Test System: AMES SALMONELLA TYPHIMURIUM, Strain/Indicator: TA100, Metabolic Activation: HAMSTER, LIVER, S-9, AROCLOR 1254 (10%), Method: PREINCUBATION) was “active; positive” and the mutagenic call (Test System: AMES SALMONELLA TYPHIMURIUM, Strain/Indicator: TA100, Metabolic Activation: NONE, Method: PREINCUBATION) was “inactive; negative”. For the same compound, the mutagenic call (Test System: AMES SALMONELLA TYPHIMURIUM, Strain/Indicator: TA100, Metabolic Activation: RAT, LIVER, S-9, AROCLOR 1254 (10%), Method: PREINCUBATION) was “active; positive”, the mutagenic call (Test System: AMES SALMONELLA TYPHIMURIUM, Strain/Indicator: TA1535, Metabolic Activation: HAMSTER, LIVER, S-9, AROCLOR 1254 (10%), Method: PREINCUBATION) was “inactive; negative” and the mutagenic call (Test System: AMES SALMONELLA TYPHIMURIUM, Strain/Indicator: TA1535, Metabolic Activation: NONE, Method: PREINCUBATION) was “inactive; negative”. The mutagenic call (Test System: AMES SALMONELLA TYPHIMURIUM, Strain/Indicator: TA1535, Metabolic Activation: RAT LIVER S-9, PHENOBARBITAL AND BETA-NAPHTHOFLAVONE, Method: PREINCUBATION) was “inactive; negative”, the mutagenic call (Test System: AMES SALMONELLA TYPHIMURIUM, Strain/Indicator: TA1535, Metabolic Activation: RAT, LIVER, S-9, AROCLOR 1254 (10%), Method: PREINCUBATION) was “inactive; negative” and the mutagenic call (Test System: AMES SALMONELLA TYPHIMURIUM, Strain/Indicator: TA1537, Metabolic Activation: NONE, Method: PREINCUBATION) was “inactive; negative”. For the same compound, the mutagenic call (Test System: AMES SALMONELLA TYPHIMURIUM, Strain/Indicator: TA1537, Metabolic Activation: RAT LIVER S-9, AROCLOR 1254 (10 OR 30%), Method: STANDARD PLATE) was “active; positive”, the mutagenic call (Test System: AMES SALMONELLA TYPHIMURIUM, Strain/Indicator: TA1537, Metabolic Activation: RAT LIVER S-9, PHENOBARBITAL AND BETA-NAPHTHOFLAVONE, Method: PREINCUBATION) was “inactive; negative” and the mutagenic call (Test System: E.COLI, Strain/Indicator: WP2UVRA, Metabolic Activation: NONE, Method: PREINCUBATION) was “inactive; negative”. For the same compound, the mutagenic call (Test System: E.COLI, Strain/Indicator: WP2UVRA, Metabolic Activation: RAT LIVER S-9, PHENOBARBITAL AND BETA-NAPHTHOFLAVONE, Method: PREINCUBATION) was “inactive; negative”, the mutagenic call (Test System: MOUSE LYMPHOMA, Strain/Indicator: L5178Y (TK+/TK-), Metabolic Activation: NONE, Method: SUSPENSION/PLATE) was “active; positive” and the mutagenic call (Test System: MOUSE LYMPHOMA, Strain/Indicator: L5178Y (TK+/TK-), Metabolic Activation: RAT, LIVER, S-9, AROCLOR 1254, Method: SUSPENSION/PLATE) was “active; positive”.

Source: PubChem BioAssay AID1259407 (Chemical Carcinogenesis Research Information System (CCRIS), 2018)
